Results taken from ChEMBL document CHEMBL1149523, “Inhibition of HIV-1 integrase activity by synthetic peptides derived from the HIV-1 HXB2 Pol region of the viral genome” (Bioorg Med Chem Lett, 2006).

Tests used:
[1] = biological target: T1, Human immunodeficiency virus type 1 integrase (Human immunodeficiency virus 1, UniProt Q7ZJM1, C130S); assay: Inhibition of HIV1 integrase C130S mutant strand transfer step
[2] = biological target: T2, Human immunodeficiency virus type 1 integrase (Human immunodeficiency virus 1, UniProt Q7ZJM1, C130A); assay: Inhibition of mutant HIV1 integrase C130A mutant 3' processing step
[3] = biological target: T1, Human immunodeficiency virus type 1 integrase; assay: Inhibition of HIV1 integrase C130S mutant 3' processing step
[4] = biological target: T3, Human immunodeficiency virus type 1 integrase (Human immunodeficiency virus 1, UniProt Q7ZJM1); assay: Inhibition of wild type HIV1 integrase strand transfer step
[5] = biological target: T3, Human immunodeficiency virus type 1 integrase; assay: Inhibition of wild type HIV1 integrase 3' processing step
[6] = biological target: Human immunodeficiency virus type 1 integrase (Human immunodeficiency virus 1, UniProt Q7ZJM1, C280S/F182K); assay: Inhibition of soluble HIV1 integrase F182K/ C280S mutant 3' processing step
[7] = biological target: T2, Human immunodeficiency virus type 1 integrase; assay: Inhibition of HIV1 integrase C130A mutant strand transfer step
[8] = biological target: Human immunodeficiency virus type 1 integrase (Human immunodeficiency virus 1, UniProt Q7ZJM1, C280S/F185K); assay: Inhibition of soluble HIV1 integrase F185K/C280S mutant strand transfer step
Sequence of Human immunodeficiency virus type 1 integrase (Human immunodeficiency virus 1, UniProt Q7ZJM1, C280S/F185K) (Q7ZJM1 entry or part of it C280S/F185K): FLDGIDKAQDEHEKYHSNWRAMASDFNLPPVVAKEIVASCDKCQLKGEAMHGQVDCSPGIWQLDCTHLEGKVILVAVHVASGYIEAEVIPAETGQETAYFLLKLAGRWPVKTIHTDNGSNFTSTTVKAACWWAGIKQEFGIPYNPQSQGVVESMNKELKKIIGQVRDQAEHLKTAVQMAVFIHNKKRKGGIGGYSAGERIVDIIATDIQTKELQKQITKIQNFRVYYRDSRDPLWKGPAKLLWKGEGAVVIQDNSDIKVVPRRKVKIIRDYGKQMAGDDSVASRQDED

T1 sequence (Q7ZJM1 entry or part of it C130S): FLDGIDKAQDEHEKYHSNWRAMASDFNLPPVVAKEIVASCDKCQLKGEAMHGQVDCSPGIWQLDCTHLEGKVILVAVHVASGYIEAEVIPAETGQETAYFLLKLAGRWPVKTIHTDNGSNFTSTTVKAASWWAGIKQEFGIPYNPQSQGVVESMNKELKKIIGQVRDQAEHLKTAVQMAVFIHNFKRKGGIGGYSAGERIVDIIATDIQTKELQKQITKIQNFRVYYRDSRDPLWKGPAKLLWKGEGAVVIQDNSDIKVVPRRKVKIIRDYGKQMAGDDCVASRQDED
T2 sequence (Q7ZJM1 entry or part of it C130A): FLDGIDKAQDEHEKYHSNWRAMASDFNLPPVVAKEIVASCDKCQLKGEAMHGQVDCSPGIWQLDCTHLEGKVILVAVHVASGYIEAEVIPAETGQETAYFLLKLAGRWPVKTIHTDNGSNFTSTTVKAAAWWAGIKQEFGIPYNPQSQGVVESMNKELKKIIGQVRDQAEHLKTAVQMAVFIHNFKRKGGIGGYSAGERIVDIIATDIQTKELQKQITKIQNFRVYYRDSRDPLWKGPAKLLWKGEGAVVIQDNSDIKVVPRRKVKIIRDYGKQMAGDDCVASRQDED
T3 sequence (Q7ZJM1 whole entry): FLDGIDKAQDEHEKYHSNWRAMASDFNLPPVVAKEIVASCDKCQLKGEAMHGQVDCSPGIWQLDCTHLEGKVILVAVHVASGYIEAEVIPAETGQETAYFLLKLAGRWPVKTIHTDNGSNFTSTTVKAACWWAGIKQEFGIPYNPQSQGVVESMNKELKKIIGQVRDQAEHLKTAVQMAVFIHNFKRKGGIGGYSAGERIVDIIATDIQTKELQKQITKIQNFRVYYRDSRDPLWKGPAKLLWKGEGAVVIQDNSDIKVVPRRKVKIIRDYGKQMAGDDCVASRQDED

| Structure (SMILES) | IC50 [1] [µM] | IC50 [2] [µM] | IC50 [3] [µM] | IC50 [4] [µM] | IC50 [5] [µM] | IC50 [6] [µM] | IC50 [7] [µM] | IC50 [8] [µM] |
| --- | --- | --- | --- | --- | --- | --- | --- | --- |
| CC[C@H](C)[C@H](NC(=O)[C@H](CC(C)C)NC(=O)[C@H](CCC(N)=O)NC(=O)[C@H](CCC(=O)O)NC(=O)[C@@H](NC(=O)[C@@H](NC(=O)[C@H](CCC(N)=O)NC(=O)[C@H](CC(N)=O)NC(=O)[C@@H](NC(=O)[C@H](CC(C)C)NC(=O)[C@@H](N)CCC(=O)O)C(C)C)[C@@H](C)CC)[C@@H](C)CC)C(=O)N[C@@H](CCCCN)C(=O)N[C@@H](CCCCN)C(=O)N[C@@H](CCC(=O)O)C(=O)N[C@@H](CCCCN)C(=O)N[C@H](C(=O)N[C@@H](Cc1ccc(O)cc1)C(=O)N[C@@H](CC(C)C)C(=O)N[C@@H](C)C(=O)N[C@@H](Cc1c[nH]c2ccccc12)C(=O)O)C(C)C | 7 | 45 | 136 | 14 | 15 | 113 | 15 | 83 |
| CC[C@H](C)[C@H](NC(=O)[C@H](CO)NC(=O)[C@H](CCC(=O)O)NC(=O)[C@@H](NC(=O)[C@@H](NC(=O)[C@@H](NC(=O)[C@H](CCCCN)NC(=O)[C@H](CCC(N)=O)NC(=O)[C@@H](NC(=O)[C@H](C)NC(=O)[C@H](CCC(=O)O)NC(=O)[C@@H](NC(=O)[C@H](CC(C)C)NC(=O)[C@H](CCC(N)=O)NC(=O)[C@@H](N)CCCCN)[C@@H](C)O)C(C)C)[C@@H](C)CC)[C@@H](C)O)[C@@H](C)O)C(=O)N[C@H](C(=O)N[C@H](C(=O)N[C@@H](Cc1c[nH]c2ccccc12)C(=O)NCC(=O)N[C@@H](CCCCN)C(=O)O)[C@@H](C)CC)C(C)C | 2 | 15 | 29 | 4 | 7 | 51 | 10 | 31 |
| CC[C@H](C)[C@H](NC(=O)CNC(=O)[C@H](CC(C)C)NC(=O)[C@H](C)NC(=O)[C@H](Cc1ccc(O)cc1)NC(=O)[C@H](CCC(N)=O)NC(=O)[C@H](CO)NC(=O)[C@H](CC(=O)O)NC(=O)[C@@H](NC(=O)[C@@H](NC(=O)[C@@H](NC(=O)[C@H](CC(N)=O)NC(=O)[C@@H](NC(=O)[C@H](CCC(=O)O)NC(=O)[C@H](CC(C)C)NC(=O)CNC(=O)[C@H](CO)NC(=O)[C@H](CC(=O)O)NC(=O)[C@H](CCC(N)=O)NC(=O)[C@@H](N)CC(C)C)C(C)C)[C@@H](C)CC)C(C)C)[C@@H](C)O)C(=O)O | 4 | > 167 | 18 | 2 | 11 | > 167 | 20 | 36 |
| CC[C@H](C)[C@H](NC(=O)[C@H](Cc1c[nH]c2ccccc12)NC(=O)[C@@H](NC(=O)[C@H](C)NC(=O)[C@H](CCC(N)=O)NC(=O)[C@H](Cc1c[nH]c2ccccc12)NC(=O)[C@H](Cc1ccc(O)cc1)NC(=O)[C@H](CCC(=O)O)NC(=O)[C@@H](NC(=O)[C@H](Cc1c[nH]c2ccccc12)NC(=O)[C@H](Cc1c[nH]c2ccccc12)NC(=O)[C@@H](NC(=O)[C@H](CCC(=O)O)NC(=O)[C@H](Cc1c[nH]c2ccccc12)NC(=O)[C@@H](NC(=O)[C@@H](N)CCC(=O)O)[C@@H](C)O)[C@@H](C)O)[C@@H](C)O)[C@@H](C)O)C(=O)N1CCC[C@H]1C(=O)N[C@@H](CCC(=O)O)C(=O)N[C@@H](Cc1c[nH]c2ccccc12)C(=O)N[C@@H](CCC(=O)O)C(=O)O | 27 | 25 | 126 | 2 | 6 | 13 | 5 | 9 |
| CC[C@H](C)C(NC(=O)[C@H](CCC(=O)O)NC(=O)[C@H](CC(C)C)NC(=O)[C@H](CC(=O)O)NC(=O)[C@H](CO)NC(=O)CNC(=O)[C@@H](NC(=O)[C@H](Cc1ccc(O)cc1)NC(=O)[C@H](CC(C)C)NC(=O)[C@H](CC(=O)O)NC(=O)[C@H](CC(=O)O)NC(=O)[C@H](CCSC)NC(=O)[C@H](Cc1ccc(O)cc1)NC(=O)[C@H](CCC(N)=O)NC(=O)[C@H](Cc1ccc(O)cc1)NC(=O)[C@@H](NC(=O)[C@@H](NC(=O)[C@@H](NC(=O)[C@H](CC(=O)O)NC(=O)[C@@H]1CCCN1)[C@@H](C)CC)C(C)C)[C@@H](C)CC)C(C)C)C(=O)O (stereo not given in full) | 2 | 20 | 41 | 10 | 6 | 28 | 5 | 23 |
